Test results: patent publication US20240116988A1, “ANTI-ROR1 MACROCYCLIC PEPTIDES AND COMPOSITIONS” (BRISTOL-MYERS SQUIBB COMPANY, priority 2022, published 2024)
Starred links: 1 amine or outer side, 2 acyl side, 3 side chain; linkers in the order of their positions; H or OH if unused. Positions of bridges follow the written chain, without caps; N, C: chain ends. Non-standard residues stand in square brackets, D forms with d. Residues, ends and D or L forms follow the SMILES beside them. ξ: configuration not given here. X1 = CC(C)[C@H](CC(=O)[C@@H](N[*:1])C(C)C)C(=O)[*:2]; NMeF = CN[C@@H](Cc1ccccc1)C(=O)O; PEG5 = NCCOCCOCCOCCOCCOCCC(=O)O; ξY = NC(Cc1ccc(O)cc1)C(=O)O; PEG3 = NCCOCCOCCOCCC(=O)O; NMeA = CN[C@@H](C)C(=O)O; AEEA = NCCOCCOCC(=O)O; Sar = CNCC(=O)O

The compounds below were run against T1, human ROR1 (Homo sapiens, UniProt Q01973) (assay: ROR1 high content cell-based binding assay). Conditions: read-out: ROR1 Binding 293T Human HC Cell Based Assay IC50.
T1 construct: host or cells: HEK 293T cells, Tet-on system induced with doxycycline
Outline: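 Doxycycline-induced 293T cells expressing human ROR1, seeded overnight, were treated with compound plus 5-FAM-labeled ROR1-binding probe peptide (30 nM final) for 1 h at 37 °C. After washing and formaldehyde/Hoechst fixation, cell-bound probe fluorescence was read by high-content imaging.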

T1 sequence (Q01973 30-937): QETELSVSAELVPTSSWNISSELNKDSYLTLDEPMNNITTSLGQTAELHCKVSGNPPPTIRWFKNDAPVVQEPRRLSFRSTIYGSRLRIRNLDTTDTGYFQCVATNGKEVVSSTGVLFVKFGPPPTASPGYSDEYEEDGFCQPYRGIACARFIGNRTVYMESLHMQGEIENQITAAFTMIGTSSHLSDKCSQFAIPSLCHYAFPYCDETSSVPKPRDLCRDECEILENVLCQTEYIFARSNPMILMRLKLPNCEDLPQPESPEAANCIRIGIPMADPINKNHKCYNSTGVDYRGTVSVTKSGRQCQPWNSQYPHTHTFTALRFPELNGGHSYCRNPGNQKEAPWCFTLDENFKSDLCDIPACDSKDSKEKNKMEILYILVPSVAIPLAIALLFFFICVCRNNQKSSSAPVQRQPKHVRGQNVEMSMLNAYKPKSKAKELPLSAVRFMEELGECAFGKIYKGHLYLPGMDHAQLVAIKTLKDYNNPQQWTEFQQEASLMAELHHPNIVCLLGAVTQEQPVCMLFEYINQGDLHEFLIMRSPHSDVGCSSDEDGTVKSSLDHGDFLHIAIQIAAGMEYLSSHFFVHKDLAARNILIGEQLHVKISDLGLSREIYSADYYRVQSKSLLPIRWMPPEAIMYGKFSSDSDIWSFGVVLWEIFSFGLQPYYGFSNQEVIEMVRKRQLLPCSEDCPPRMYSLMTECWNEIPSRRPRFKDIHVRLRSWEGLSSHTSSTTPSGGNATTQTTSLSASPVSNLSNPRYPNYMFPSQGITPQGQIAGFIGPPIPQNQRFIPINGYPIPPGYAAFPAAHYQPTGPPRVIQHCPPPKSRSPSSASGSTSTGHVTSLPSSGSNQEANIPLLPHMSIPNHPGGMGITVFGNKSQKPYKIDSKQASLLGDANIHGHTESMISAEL

Compound | IC50 [µM]
CC(C)C[C@@H]1NC(=O)[C@H](Cc2ccc(O)cc2)NC(=O)[C@H](Cc2ccccc2)NC(=O)CSC[C@@H](C(=O)NCCOCCOCCOCCOCCOCCC(=O)N[C@@H](CCCCN)C(N)=O)NC(=O)[C@H](CC(C)C)NC(=O)[C@H](Cc2ccccc2)N(C)C(=O)[C@H](Cc2ccc(O)cc2)NC(=O)[C@H](Cc2c[nH]c3ccccc23)NC(=O)CNC(=O)[C@H](CO)NC(=O)[C@H](Cc2ccc(O)cc2)NC(=O)[C@H](C(C)C)NC1=O [Example 1083] ({CH2CO}-FYLVYSGWY[NMeF]LC[PEG5]K-NH2; thioether N-12) | 0.022
CC[C@H](C)[C@@H]1NC(=O)[C@H](Cc2ccccc2)NC(=O)CSC[C@@H](C(=O)NCC(=O)NCCOCCOCC(=O)N[C@@H](CCCCN)C(N)=O)NC(=O)[C@H](C)NC(=O)[C@H](Cc2ccccc2)NC(=O)[C@H](Cc2ccc(O)cc2)NC(=O)[C@H](Cc2c[nH]c3ccccc23)NC(=O)CNC(=O)[C@H](CCC(=O)O)NC(=O)[C@H](Cc2ccc(O)cc2)NC(=O)[C@H](C(C)C)NC(=O)[C@H](Cc2c[nH]c3ccccc23)NC1=O [Example 1081] ({CH2CO}-FIWVYEGWYFACG[AEEA]K-NH2; thioether N-12) | 0.177
CC(C)C[C@@H]1NC(=O)[C@H](Cc2ccc(O)cc2)NC(=O)[C@H](Cc2ccccc2)NC(=O)CSC[C@@H](C(=O)NCC(N)=O)NC(=O)[C@H](CC(C)C)NC(=O)[C@H](Cc2ccccc2)N(C)C(=O)[C@H](Cc2ccc(O)cc2)NC(=O)[C@H](Cc2c[nH]c3ccccc23)NC(=O)CNC(=O)[C@H](Cc2ccc(O)cc2)NC(=O)[C@H](CCCNC(=N)N)NC(=O)[C@H](C(C)C)NC1=O [Example 1055] ({CH2CO}-FYLVRYGWY[NMeF]LCG-NH2; thioether N-12) | 0.029
CC(C)C[C@@H]1NC(=O)[C@H](Cc2ccc(O)cc2)NC(=O)[C@H](C)N(C)C(=O)CSC[C@@H](C(=O)NCC(N)=O)NC(=O)[C@H](CC(C)C)NC(=O)[C@H](Cc2ccccc2)N(C)C(=O)[C@H](Cc2ccc(O)cc2)NC(=O)[C@H](Cc2c[nH]c3ccccc23)NC(=O)CNC(=O)[C@H](CO)NC(=O)[C@H](Cc2ccc(O)cc2)NC(=O)[C@H](C(C)C)NC1=O [Example 1063] ({CH2CO}-[NMeA]YLVYSGWY[NMeF]LCG-NH2; thioether N-12) | 0.576
CC(C)C[C@@H]1NC(=O)[C@H](Cc2ccc(O)cc2)NC(=O)[C@H](Cc2ccccc2)NC(=O)CSC[C@@H](C(=O)NCCOCCOCCOCCC(=O)N[C@@H](CCCCN)C(N)=O)NC(=O)[C@H](CC(C)C)NC(=O)[C@H](Cc2ccccc2)N(C)C(=O)[C@H](Cc2ccc(O)cc2)NC(=O)[C@H](Cc2c[nH]c3ccccc23)NC(=O)CNC(=O)[C@H](CO)NC(=O)[C@H](Cc2ccc(O)cc2)NC(=O)[C@H](C(C)C)NC1=O [Example 1085] ({CH2CO}-FYLVYSGWY[NMeF]LC[PEG3]K-NH2; thioether N-12) | 0.018
CC(C)C[C@@H]1NC(=O)[C@H](CC(N)=O)NC(=O)[C@H](Cc2ccccc2)N(C)C(=O)CNC(=O)[C@H](Cc2ccccc2)NC(=O)[C@H](Cc2ccccc2)NC(=O)CSC[C@@H](C(N)=O)NC(=O)[C@H](Cc2c[nH]c3ccccc23)NC(=O)[C@H](Cc2ccc(O)cc2)NC1=O [Example 1108] ({CH2CO}-FFG[NMeF]NLYWC-NH2; thioether N-9) | 0.404
CC(C)C[C@@H]1NC(=O)[C@H](Cc2ccccc2)NC(=O)CSC[C@@H](C(=O)NCC(N)=O)NC(=O)[C@H](C(C)C)NC(=O)[C@H](Cc2c[nH]c3ccccc23)NC(=O)[C@H](CC(C)C)NC(=O)[C@H](Cc2c[nH]c3ccccc23)NC(=O)CN(C)C(=O)CNC(=O)[C@H](C(C)C)NC(=O)[C@H](Cc2c[nH]c3ccccc23)NC1=O [Example 1205] ({CH2CO}-FLWVG[Sar]WLWVCG-NH2; thioether N-11) | 0.346
CC(C)C[C@@H]1NC(=O)[C@H](Cc2ccccc2)NC(=O)[C@H](Cc2ccccc2)N(C)C(=O)CNC(=O)[C@H](Cc2ccc(O)cc2)NC(=O)[C@H](Cc2ccccc2)NC(=O)CSC[C@@H](C(N)=O)NC(=O)[C@H](Cc2c[nH]c3ccccc23)NC(=O)[C@H](Cc2ccc(O)cc2)NC1=O [Example 1102] ({CH2CO}-FYG[NMeF]FLYWC-NH2; thioether N-9) | 0.097
CC(C)C[C@@H]1NC(=O)[C@H](Cc2ccc(O)cc2)NC(=O)[C@H](Cc2ccccc2)NC(=O)CSC[C@@H](C(=O)NCC(N)=O)NC(=O)[C@H](CC(C)C)NC(=O)[C@H](Cc2ccccc2)N(C)C(=O)[C@H](Cc2ccc(O)cc2)NC(=O)[C@H](Cc2c[nH]c3ccccc23)NC(=O)CNC(=O)[C@H](Cc2cnc[nH]2)NC(=O)[C@H](Cc2ccc(O)cc2)NC(=O)[C@H](C(C)C)NC1=O [Example 1015] ({CH2CO}-FYLVYHGWY[NMeF]LCG-NH2; thioether N-12) | 0.017
CC(C)C[C@@H]1NC(=O)[C@H](Cc2ccc(O)cc2)NC(=O)[C@H](Cc2ccccc2)NC(=O)CSC[C@@H](C(=O)NCC(N)=O)NC(=O)[C@H](CC(C)C)NC(=O)[C@H](Cc2ccccc2)N(C)C(=O)C(Cc2ccc(O)cc2)NC(=O)[C@H](Cc2c[nH]c3ccccc23)NC(=O)[C@@H](C)NC(=O)[C@H](CO)NC(=O)[C@H](Cc2ccc(O)cc2)NC(=O)[C@H](C(C)C)NC1=O (some centres unmarked) [Example 1059] ({CH2CO}-FYLVYS[dA]W[ξY][NMeF]LCG-NH2; thioether N-12) | 0.093
CC(C)C[C@@H]1NC(=O)[C@H](Cc2ccc(O)cc2)NC(=O)[C@H](Cc2ccccc2)NC(=O)CSC[C@@H](C(=O)NCC(N)=O)NC(=O)[C@H](CC(C)C)NC(=O)[C@H](Cc2ccccc2)N(C)C(=O)[C@H](Cc2ccc(O)cc2)NC(=O)[C@H](Cc2c[nH]c3ccccc23)NC(=O)CNC(=O)[C@H](CO)NC(=O)[C@H](Cc2cnc[nH]2)NC(=O)[C@H](C(C)C)NC1=O [Example 1030] ({CH2CO}-FYLVHSGWY[NMeF]LCG-NH2; thioether N-12) | 0.275
CC(C)C[C@@H]1NC(=O)[C@H](Cc2c[nH]c3ccccc23)NC(=O)[C@H](Cc2ccccc2)NC(=O)[C@H](Cc2c[nH]c3ccccc23)NC(=O)CNC(=O)[C@H](CC(=O)O)NC(=O)[C@H](CCCNC(=N)N)NC(=O)[C@H](C(C)C)CC(=O)[C@H](C(C)C)NC(=O)[C@H](Cc2ccc(O)cc2)NC(=O)[C@H](Cc2ccccc2)NC(=O)CSC[C@@H](C(=O)NCC(N)=O)NC1=O [Example 1011] ({CH2CO}-FY[X1]RDGWFWLCG-NH2; thioether N-11) | 0.168
CC(C)C[C@@H]1NC(=O)[C@H](CO)NC(=O)[C@H](Cc2ccccc2)N(C)C(=O)CNC(=O)[C@H](Cc2ccc(O)cc2)NC(=O)[C@H](Cc2ccccc2)NC(=O)CSC[C@@H](C(N)=O)NC(=O)[C@H](Cc2c[nH]c3ccccc23)NC(=O)[C@H](Cc2ccc(O)cc2)NC1=O [Example 1111] ({CH2CO}-FYG[NMeF]SLYWC-NH2; thioether N-9) | 0.479
CC(C)C[C@@H]1NC(=O)[C@H](Cc2ccccc2)N(C)C(=O)[C@H](Cc2ccc(O)cc2)NC(=O)[C@H](Cc2c[nH]c3ccccc23)NC(=O)CNC(=O)[C@H](CO)NC(=O)[C@H](Cc2ccc(O)cc2)NC(=O)[C@H](C(C)C)NC(=O)[C@H](CCCNC(=N)N)NC(=O)[C@H](Cc2ccc(O)cc2)NC(=O)[C@H](Cc2ccccc2)NC(=O)CSC[C@@H](C(=O)NCC(N)=O)NC1=O [Example 1046] ({CH2CO}-FYRVYSGWY[NMeF]LCG-NH2; thioether N-12) | 0.006
